The source of these data is patent US6693103B2 (Wyeth, priority 1999, dated 2004).

Data set [1] relates to rat uterine decidualization. As to the kind of experiment: Rat decidualization assay. The settings on record: ovariectomized female Sprague-Dawley rats, s.c.; average of dose-response curves. It counts as in vivo. As to the method:
The animals are treated once daily for seven days.
Uteri are removed and trimmed of fat.
Decidual response: [(D−C)/C]×100%

With `C#C[C@]1(O)CC[C@H]2[C@@H]3CCC4=CC(=O)CC[C@@H]4[C@H]3C(=C)C[C@@]21CC` [3-Ketodesogestrel], in data set [1], the “average EC50 for uterine weight (decidual response)” value turned out to be 0.10 mg/kg.

Broadly, the melting point is the temperature, or range, at which the solid turns liquid. On to `CC1(C)CC(=O)Nc2ccc(-c3cccc(C#N)c3)cc21` [Example 42, 3-(4,4-Dimethyl-2-oxo-1,2,3,4-tetrahydroquinolin-6-yl)benzonitrile], for which the melting point was in the range of 190 to 192 °C.

Take `C#C[C@]1(O)CC[C@H]2[C@@H]3CCC4=CC(=O)CC[C@@H]4[C@H]3CC[C@@]21CC` [Levonorgestrel]: the “average EC50 for uterine weight (decidual response)” value in data set [1] was 0.10 mg/kg.
